The values that follow come from PMC12592319, “Predicting Food Effect On Oral Drug Absorption For Solubility-Epithelial Membrane Permeation-Limited Cases With Bile Micelle Solubilization” (Pharmaceutical Research, 2025).

Broadly, the fraction unbound is the share of the substance not bound to proteins or other matrix. As usually defined, the pKa is the pH at which an ionisable group is half protonated. By solubility is commonly meant the dissolved amount per volume that the medium holds.

≈ marks a conversion by molar mass, not a printed value. Where two headings read alike, the source gives them in different places.

Data set [1] can be described thus: FaRLS diagnosis by Fa equation and Peff equation (Table S3, dose number). To be noted: for Dose number, Fasted / Dose number, Fed: clinical dose; for Dose number, Fasted: Sdissolv in FaSSIF; for Dose number, Fed: Sdissolv in FeSSIF.
For data set [2] the following is noted: cited from earlier work.
Data set [3] can be described thus: μFLUX dissolution-permeation flux experiment. To be noted: for fraction unbound: pH 6.5, fu; for kdiss: calculated from the initial dissolution rate in μFLUX; for Ratio (fed/fasted) CD,final / Ratio (fed/fasted) JμFLUX: FeSSIF/FaSSIF, μFLUX dose 1/10 of the clinical dose; for CD,final: measured after filtration, 1/10 of clinical dose, mean ± S.D., N = 3; for Pep,u,μFLUX: Peff,μFLUX/fu; for JμFLUX: average of 90 to 120 min (pranlukast 210 to 240 min); for Peff,μFLUX: calculated based on CD,final.

Data set [4] can be described thus: Octanol-water partition/distribution coefficient (logPoct, logDoct). The data set is classed as physicochemical. The note with it: calculated from logPoct and pKa using the Henderson-Hasselbalch equation. From the text: Table II Physicochemical Properties and Caco-2 Permeability of Model Drugs | column: logDoct,pH 6.5^c
The conditions of data set [5]: Fed; assumed to be the same as Caco-2 Papp; cited from earlier work.
For data set [6] the following is noted: clinical AUC ratio fed/fasted, humans; cited from earlier work.
Data set [7] in a line: pKa measurement (SiriusT3, UV-metric/pH-metric titration). The data set is classed as physicochemical. To be noted: ionic strength 0.168 mol/L, 37°C. On the procedure:
The pKa measurements were performed using a SiriusT3 automatic titrator, with a spectrometric (UV-metric) or titration (pH-metric) method. The UV-metric method used a fiber optic dip probe, a deuterium lamp UV light source, and a photodiode array detector to capture the absorption spectra of a sample solution over the course of three titrations, across the pH range 2.0–12.0. […] Titrations were carried out under a controlled temperature of 37 ± 0.2°C.
SiriusT3 software v2.0 was used to apply principal component analysis to the spectral data to resolve the molar absorptivity spectra of each sample species and determine the psKa values of the compounds in the co-solvent. The pKa values under aqueous conditions were calculated from the co-solvent data using the Yasuda-Shedlovsky extrapolation method.
Additional potentiometric titrations were performed for each drug, which confirmed that no additional non-UV active pKas were present within the titration pH range.

Data set [8] can be described thus: Equilibrium solubility measurement (shake-flask) in blank FaSSIF, FaSSIF, FeSSIF. The class given is physicochemical. The note with it: for solubility at 72 h: thermodynamic from solid, pH 6.5, 37°C, mean ± S.D., N = 3; for Ratio (fed/fasted) Sdissolv: FeSSIF/FaSSIF, corresponds to Fafed/Fafasted predicted by Eq. (18). On the procedure:
A shake-flask method was used for equilibrium solubility measurement. Each drug (10 mg) was added to the 15 mL test tube. Blank FaSSIF (28.7 mM phosphate buffer, pH 6.5 adjusted by NaOH), FaSSIF (3 mM TC, 0.75 mM EL in blank FaSSIF), or FeSSIF (15 mM TC, 3.75 mM EL in blank FaSSIF) was added. The test tube was placed horizontally in a reciprocal shaker. After shaking for 72 h at 37°C (at 90 rpm, motion width: 2.5 cm), the sample was filtered (hydrophilic PVDF, φ = 4.0 mm, pore size: 0.22 µm, Merck). The first few droplets were discarded to avoid filter adsorption. The concentration of each drug was measured by UV absorbance. […] After measuring the final pH (9615S-10D Standard ToupH electrode (HORIBA Advanced Techno Co., Ltd., Kyoto, Japan)), the residual particles were collected by vacuum filtration and analyzed by powder X-ray diffraction (PXRD) (Supplemental Information Figure S1).

The subject of a further data set is Caco-2. The arrangement: method as in PMID 9795088, PMID 10767597, PMID 15032311. To be noted: cited from earlier work.
Details of data set [9]: method as in PMID 20307655, PMID 19465123, PMID 17828749, PMID 23994640. The note with it: pH 6.5; cited from earlier work.
Setting [10] is: bile micelles in FaSSIF, FaSSIF, calculated by Eq. (9) (Sdissolv,u/Sdissolv).
Setting [11] is: bile micelles in FeSSIF, FeSSIF, calculated by Eq. (9) (Sdissolv,u/Sdissolv).
Setting [12] is: FaSSIF, read-out: Solubility, FaSSIF.
Where [13] appears, read: FeSSIF, read-out: Solubility, FeSSIF.
[14] abbreviates: blank FaSSIF, read-out: Solubility, Blank FaSSIF.

As to `C#C[C@]1(O)CC[C@H]2[C@@H]3CCC4=Cc5oncc5C[C@]4(C)[C@H]3CC[C@@]21C` [Danazol], in [1], the “Dose number, Fasted” value worked out at 43 and the “Dose number, Fed” value stood at 14. In addition, the logPoct in data set [2] is 4.5. In data set [3] (setting [10]), the fraction unbound was 0.011. Also, in [3] (setting [11]), the fraction unbound was 0.0043. Further, the “logDoct,pH 6.5” value in data set [4] was 4.5.
Take `CCc1c(Cl)c(O)c(Cl)c(O)c1C(=O)O[C@H]1[C@H](O)[C@H](OC)[C@H](OC/C2=C\C=C\C[C@H](O)/C(C)=C/[C@H](CC)[C@@H](O[C@@H]3OC(C)(C)[C@@H](OC(=O)C(C)C)[C@H](O)[C@@H]3O)/C(C)=C/C(C)=C/C[C@@H]([C@@H](C)O)OC2=O)O[C@@H]1C` [Fidaxomicin]: the Dn in [1] (Fasted) came out at 3.7; in data set [1] (Fed), 9.3. Moreover, the figures for the Do in data set [1] (Fasted) and in data set [1] (Fed) were 20 and 7.2, respectively. The Pep in [1] (Fasted) is on record as 0.055 10^-6 cm/s; in [1] (Fed), 0.024 10^-6 cm/s. The “Pep'” value in [1] (Fasted) is on record as 0.55 10^-6 cm/s; in data set [1] (Fed), 0.24 10^-6 cm/s. The “Dose number, Fasted” value in data set [1] was 20. In data set [1], the “Dose number, Fed” value was found to be 7. Also, the unbound share (fraction unbound) was 0.6 in [1] (human, bile micelles in FaSSIF, pH 6.5); 0.6 in data set [3] (setting [10]); 0.26 in [3] (setting [11]). The logPoct in data set [2] is recorded as 3.7. In data set [5], the “Pep,u” value is 0.092 10^-6 cm/s. Further, the “Ratio (fed/fasted) AUCr” value in [6] is 1.0. Besides, the pKa in [7] (acidic pKa, read-out: pKa (A)) worked out at 5.15. The values for the kdiss in [3] (Fasted) and in data set [3] (Fed) were 0.0002967 s⁻¹ and 0.0007389 s⁻¹, respectively. Further, in data set [3] (FeSSIF vs FaSSIF), the “Pep,u,μFLUX less in the fed condition than in the fasted condition” value is “about 40%”. Besides, in data set [3], the “Ratio (fed/fasted) CD,final” value is reported as 3.1. Further, the “Ratio (fed/fasted) JμFLUX” value in data set [3] turned out to be 0.81. Further, the results for the “CD,final” value in data set [3] (donor FaSSIF pH 6.5) and in data set [3] (donor FeSSIF pH 6.5) were 72 ± 0 µg/mL and 220 ± 0^ h μg/mL, respectively. Moreover, the results for the “Pep,u,μFLUX” value in [3] (donor FaSSIF) and in data set [3] (donor FeSSIF) were 17 ± 2 10^–5 cm/s and 10 ± 1 10^–5 cm/s, respectively. Further, the JμFLUX was 7.4 ± 0.7 10–^3 μg/cm^2/s in data set [3] (donor FaSSIF) and 6.0 ± 0.7 10–^3 μg/cm^2/s in [3] (donor FeSSIF). Moreover, the “Peff,μFLUX” value in [3] (donor FaSSIF) is listed as 10 ± 1 10^–5 cm/s; in data set [3] (donor FeSSIF), 2.7 ± 0.3 10^–5 cm/s. Further, the “Time after which CD reached a plateau” value in [3] (donor solution) is 20 min. For the same compound, the “logDoct,pH 6.5” value in data set [4] is listed as 2.3. For the same compound, the solubility at 72 h in [8] (setting [12]) is 0.077 ± 0.001 mg/mL (≈ 72.8 µM); in data set [8] (setting [13]), 0.178 ± 0.002 mg/mL (≈ 168 µM); in [8] (setting [14]), 0.046 ± 0.001 mg/mL (≈ 43.5 µM). For the same compound, the “Ratio (fed/fasted) Sdissolv” value in data set [8] is listed as 2.3.
`O=C(Nc1cccc2c(=O)cc(-c3nnn[nH]3)oc12)c1ccc(OCCCCc2ccccc2)cc1` [Pranlukast]: in data set [1], the “Dose number, Fasted” value is given as 20 and the “Dose number, Fed” value was 2. Also, in [6], the “Ratio (fed/fasted) AUCr” value is listed as 1.3. The “Caco-2 Papp” value in the data set on Caco-2 is 0.08 [54] 10^–6 cm/s. Also, in data set [9], the “Solubility, Blank FaSSIF” value was 0.003 mg/mL (≈ 6.23 µM); the “Solubility, FaSSIF” value is 0.088 mg/mL (≈ 183 µM); the “Solubility, FeSSIF” value was 0.8 mg/mL (≈ 1660 µM). For the same compound, in data set [3] (FeSSIF), the “Bound to bile micelles” value is on record as 99.6%. In data set [3], the “Ratio (fed/fasted) CD,final” value is 20 and the “Ratio (fed/fasted) JμFLUX” value amounted to 2.4. The fu in data set [3] (FeSSIF, calculated by Eq. (9) (Sdissolv,u/Sdissolv)) is 0.0041. Besides, the fraction unbound in data set [3] (setting [10]) was 0.038. Besides, in data set [3] (setting [11]), the unbound share (fraction unbound) was 0.004. Besides, the “CD,final” value in data set [3] (donor FaSSIF pH 6.5) was found to be 56 ± 1 µg/mL. Further, in [3] (donor FaSSIF), the “Pep,u,μFLUX” value was 10 ± 2 10^–5 cm/s, the JμFLUX is given as 0.20 ± 0.05 10–^3 μg/cm^2/s and the “Peff,μFLUX” value is on record as 0.37 ± 0.09 10^–5 cm/s. Further, in data set [3] (donor FeSSIF pH 6.5), the “CD,final” value is reported as 1100 ± 0^ h μg/mL. Besides, in data set [3] (donor FeSSIF), the “Pep,u,μFLUX” value was 10 ± 4 10^–5 cm/s, the JμFLUX is reported as 0.47 ± 0.16 10–^3 μg/cm^2/s and the “Peff,μFLUX” value is 0.043 ± 0.015 10^–5 cm/s. The “Ratio (fed/fasted) Sdissolv” value in data set [8] is reported as 9.1.
As to `CO[C@H]1/C=C/O[C@@]2(C)Oc3c(C)c(O)c4c(O)c(c5c(nc6cc(C)ccn65)c4c3C2=O)NC(=O)/C(C)=C\C=C\[C@H](C)[C@H](O)[C@@H](C)[C@@H](O)[C@@H](C)[C@H](OC(C)=O)[C@@H]1C` [Rifaximin], the pKa in data set [7] (acidic pKa, read-out: pKa (A)) was below 2; in data set [7] (basic pKa, read-out: pKa (B)) it was 8.29. The “Caco-2 Papp” value in the data set with Caco-2 was 1 [55] 10^–6 cm/s. For the same compound, the “logDoct,pH 6.5” value in data set [4] is 2.6. The solubility at 72 h in data set [8] (setting [12]) was 0.0034 mg/mL (≈ 4.33 µM); in data set [8] (setting [13]), 0.012 mg/mL (≈ 15.3 µM); in data set [8] (setting [14]) it was 0.0018 mg/mL (≈ 2.29 µM).
For `COc1cc(F)c(C(C)C)cc1-c1ccc(C(F)(F)F)cc1CN1C(=O)O[C@H](c2cc(C(F)(F)F)cc(C(F)(F)F)c2)[C@@H]1C` [anacetrapib], the logPoct in data set [2] is above 5.
Consider `Cc1cc(C#N)cc(C)c1Oc1nc(Nc2ccc(C#N)cc2)nc(N)c1Br` [etravirine], for which, in data set [2], the logPoct is reported as above 5.
On to `Cc1cn(-c2cc(NC(=O)c3ccc(C)c(Nc4nccc(-c5cccnc5)n4)c3)cc(C(F)(F)F)c2)cn1.Cl` [nilotinib HCl], for which the logPoct in data set [2] is above 5.
As to `CC1(C)CCC(CN2CCN(c3ccc(C(=O)NS(=O)(=O)c4ccc(NCC5CCOCC5)c([N+](=O)[O-])c4)c(Oc4cnc5[nH]ccc5c4)c3)CC2)=C(c2ccc(Cl)cc2)C1` [venetoclax], in data set [2], the logPoct was above 5.
